Test results as given in patent US11339160B2, “Imidazole and triazole containing bicyclic compounds as JAK inhibitors” (THERAVANCE BIOPHARMA R&D IP, LLC, priority 2019, dated 2022).

System: IL-2 stimulated STAT5 phosphorylation in CD4+ T cells isolated from murine splenocytes
Experiment: Inhibition of IL-2 stimulated pSTAT5 in CD4+ T cells isolated from murine splenocytes
Type: cell-based
Conditions: Mus musculus, IL-2 7 ng/ml, read-out: pIC50, inhibition of IL-2 stimulated pSTAT5 (converted)
Description: Assay 3: Inhibition of IL-2 Stimulated pSTAT5 in CD4+ T Cells Isolated from Murine Splenocytes
The potency of test compounds for inhibition of interleukin-2 (IL-2) stimulated STAT5 phosphorylation was measured in the CD4+ T cells isolated from murine splenocytes using AlphaLisa. Because IL-2 signals through JAK3, this assay provides a measure of JAK3 cellular potency in mouse.
Phosphorylated STAT5 was measured via the AlphaLISA SureFire Ultra pSTAT5 (Tyr694/699) kit (PerkinElmer).
CD4+ T cells were isolated from murine splenocytes via negative selection on a magnetic column (Miltnyi Biotec) and re-suspended in assay media (phenol red-free DMEM (Life Technologies) supplemented with 10% FBS (ATCC)). Cells were seeded at 50,000 cells/well in assay media (2 μL/well). Compounds were serially diluted in DMSO and diluted to 2× final concentration in assay media. Compound was added (4 μl/well) and the cells incubated at 37° C., 5% CO2 for 1 hour, followed by the addition of IL-2 (R&D Systems; final concentration 7 ng/ml) in pre-warmed assay media (2 μL) for 30 minutes. After cytokine stimulation, cells were lysed with 2 μl of 5× AlphaLisa Lysis Buffer (PerkinElmer). The lysate was shaken at 900 rpm for 10 minutes at room temperature (RT). Phosphorylated STAT5 was measured via the pSTAT5 AlphaLisa kit (PerkinElmer). Freshly prepared acceptor bead mixture was dispensed onto lysate (5 ul) under green filtered <100 lux light. Plates were shaken at 900 rpm for 2 mins, briefly spun down, and incubated for 2 hrs at RT in the dark. Donor beads were dispensed (5 μl) under green filtered <100 lux light. Plates were shaken at 900 rpm for 2 mins, briefly spun down, and incubated overnight at RT in the dark. Luminescence was measured with excitation at 689 nm and emission at 570 nm using an EnVision plate reader (PerkinElmer) under green filtered <100 lux light.
To determine the inhibitory potency of test compounds in response to IL-2, the average emission intensity of beads bound to pSTAT5 was measured in primary CD4+ T cells isolated from murine splenocytes. IC50 values were determined from analysis of the inhibition curves of signal intensity vs compound concentration. Data are expressed as pIC50 (negative decadic logarithm IC50) values (mean standard deviation).

Row | Structure (SMILES) | IC50
1 | C=CC(=O)N1CC(COc2cc(-c3c(F)cc(O)cc3F)cn3cncc23)C1 [Example 7, 1-(3-(((6-(2,6-difluoro-4-hydroxyphenyl)imidazo[1,5-a]pyridin-8-yl)oxy)methyl)azetidin-1-yl)prop-2-en-1-one] | < 1000 nM
2 | C=CC(=O)N1CC(COc2cc(-c3ccc(O)c(F)c3F)cn3cncc23)C1 [Example 8, 1-(3-(((6-(2,3-difluoro-4-hydroxyphenyl)imidazo[1,5-a]pyridin-8-yl)oxy)methyl)azetidin-1-yl)prop-2-en-1-one] | < 1000 nM

Molecular target: JAK3 (Homo sapiens (Human), UniProt P52333)
Experiment: Biochemical JAK3 kinase assay (LanthaScreen)
Conditions: selectivity, difference of pKi values
Description: Assay 1: Biochemical JAK and Tyk2 Kinase Assays
A panel of four LanthaScreen JAK biochemical assays (JAK1, 2, 3 and Tyk2) were carried in a common kinase reaction buffer (50 mM HEPES, pH 7.5, 0.01% Brij-35, 10 mM MgCl2, and 1 mM EGTA). Recombinant GST-tagged JAK enzymes and a GFP-tagged STAT1 peptide substrate were obtained from Life Technologies.
Serially or discretely diluted compounds were pre-incubated with each of the four JAK enzymes and the substrate in white 384-well microplates (Corning) at ambient temperature for 1 h. ATP was subsequently added to initiate the kinase reactions in 10 μL total volume, with 1% DMSO. […] Kinase reactions were allowed to proceed for 1 hour at ambient temperature before a 10 μL preparation of EDTA (10 mM final concentration) and Tb-anti-pSTAT1 (pTyr701) antibody (Life Technologies, 2 nM final concentration) in TR-FRET dilution buffer (Life Technologies) was added. The plates were allowed to incubate at ambient temperature for 1 h before being read on the EnVision reader (Perkin Elmer). Emission ratio signals (520 nm/495 nm) were recorded and utilized to calculate the percent inhibition values based on DMSO and background controls.
For dose-response analysis, percent inhibition data were plotted vs. compound concentrations, and IC50 values were determined from a 4-parameter robust fit model with the Prism software (GraphPad Software). Results were expressed as pIC50 (negative logarithm of IC50) and subsequently converted to pKi (negative logarithm of dissociation constant, Ki) using the Cheng-Prusoff equation.

Chain of JAK3 (P52333 whole entry): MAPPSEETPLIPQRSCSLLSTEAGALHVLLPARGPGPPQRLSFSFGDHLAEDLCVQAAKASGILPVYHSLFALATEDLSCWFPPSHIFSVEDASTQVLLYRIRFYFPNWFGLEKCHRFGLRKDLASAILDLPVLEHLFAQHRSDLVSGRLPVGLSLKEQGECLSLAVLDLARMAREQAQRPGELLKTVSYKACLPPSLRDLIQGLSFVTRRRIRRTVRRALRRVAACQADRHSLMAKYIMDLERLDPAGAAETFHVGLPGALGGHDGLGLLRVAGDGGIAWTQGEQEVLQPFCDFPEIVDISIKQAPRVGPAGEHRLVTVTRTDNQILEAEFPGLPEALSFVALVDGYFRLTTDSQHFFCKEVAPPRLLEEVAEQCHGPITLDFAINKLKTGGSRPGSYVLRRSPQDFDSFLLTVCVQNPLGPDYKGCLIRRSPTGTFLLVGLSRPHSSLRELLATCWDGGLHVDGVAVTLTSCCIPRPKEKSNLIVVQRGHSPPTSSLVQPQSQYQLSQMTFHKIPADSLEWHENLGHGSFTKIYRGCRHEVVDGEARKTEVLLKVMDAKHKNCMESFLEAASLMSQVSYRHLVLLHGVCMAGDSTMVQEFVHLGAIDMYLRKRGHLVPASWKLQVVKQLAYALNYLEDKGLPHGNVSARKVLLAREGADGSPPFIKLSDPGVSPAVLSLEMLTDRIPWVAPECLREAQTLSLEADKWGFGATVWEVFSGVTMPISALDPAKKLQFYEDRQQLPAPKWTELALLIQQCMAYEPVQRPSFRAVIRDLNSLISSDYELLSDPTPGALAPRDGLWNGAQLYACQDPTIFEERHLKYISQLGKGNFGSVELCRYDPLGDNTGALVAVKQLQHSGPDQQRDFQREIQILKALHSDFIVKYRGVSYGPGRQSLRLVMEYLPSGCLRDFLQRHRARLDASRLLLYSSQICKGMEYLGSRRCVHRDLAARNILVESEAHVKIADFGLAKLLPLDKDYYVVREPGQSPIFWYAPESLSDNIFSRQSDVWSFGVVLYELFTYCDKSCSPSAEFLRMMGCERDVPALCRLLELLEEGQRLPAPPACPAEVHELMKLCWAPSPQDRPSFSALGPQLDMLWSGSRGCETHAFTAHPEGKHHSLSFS

Row | Structure (SMILES) | JAK3 (pKi)-JAK1 (pKi)
3 | C=CC(=O)N1CC[C@H](Oc2cc(-c3ccc(O)cc3)cn3cncc23)C1 [Example 1, (S)-1-(3-((6-(4-hydroxyphenyl)imidazo[1,5-a]pyridin-8-yl)oxy)pyrrolidin-1-yl)prop-2-en-1-one] | A (a value of 3 or above)
4 | C=CC(=O)N1CCC(COc2cc(-c3ccc(O)cc3)cn3cncc23)CC1 [Example 2, 1-(4-(((6-(4-hydroxyphenyl)imidazo[1,5-a]pyridin-8-yl)oxy)methyl)piperidin-1-yl)prop-2-en-1-one] | A (a value of 3 or above)
5 | C=CC(=O)N1CC2(CCC2Oc2cc(-c3ccc(O)cc3)cn3cncc23)C1 (stereo not drawn) [Example 3, 1-(5-((6-(4-hydroxyphenyl)imidazo[1,5-a]pyridin-8-yl)oxy)-2-azaspiro[3.3]heptan-2-yl)prop-2-en-1-one] | A (a value of 3 or above)
6 | C=CC(=O)N1CCC(Nc2cc(-c3ccc(O)cc3)cn3cncc23)CC1 [Example 4, 1-(4-((6-(4-hydroxyphenyl)imidazo[1,5-a]pyridin-8-yl)amino)piperidin-1-yl)prop-2-en-1-one] | B (a value of 2.3 to 3)
7 | C=CC(=O)N1CC(COc2cc(-c3ccc(O)cc3)cn3cnnc23)C1 [Example 5, 1-(3-(((6-(4-hydroxyphenyl)-[1,2,4]triazolo[4,3-a]pyridin-8-yl)oxy)methyl)azetidin-1-yl)prop-2-en-1-one] | A (a value of 3 or above)
8 | C=CC(=O)N1CC(COc2nc(-c3ccc(O)cc3)cn3cncc23)C1 [Example 6, 1-(3-(((6-(4-hydroxyphenyl)imidazo[1,5-a]pyrazin-8-yl)oxy)methyl)azetidin-1-yl)prop-2-en-1-one] | A (a value of 3 or above)
9 | C=CC(=O)N1CC(COc2cc(-c3c(F)cc(O)cc3F)cn3cncc23)C1 [Example 7, 1-(3-(((6-(2,6-difluoro-4-hydroxyphenyl)imidazo[1,5-a]pyridin-8-yl)oxy)methyl)azetidin-1-yl)prop-2-en-1-one] | A (a value of 3 or above)
10 | C=CC(=O)N1CC(COc2cc(-c3ccc(O)c(F)c3F)cn3cncc23)C1 [Example 8, 1-(3-(((6-(2,3-difluoro-4-hydroxyphenyl)imidazo[1,5-a]pyridin-8-yl)oxy)methyl)azetidin-1-yl)prop-2-en-1-one] | A (a value of 3 or above)
11 | C=CC(=O)N1CCC(Oc2cc(-c3ccc(O)cc3)cn3cncc23)C(F)(F)C1 (stereo not drawn) [Example 14, 1-(3,3-difluoro-4-((6-(4-hydroxyphenyl)imidazo[1,5-a]pyridin-8-yl)oxy)piperidin-1-yl)prop-2-en-1-one] | A (a value of 3 or above)
12 | C=CC(=O)N1CCC[C@H](Oc2cc(-c3cc(F)c(O)cc3CC)cn3cncc23)C1 [Example 16] | B (a value of 2.3 to 3)
13 | CCc1cc(O)c(F)cc1-c1cc(O[C@H]2CCCN(C(=O)/C=C/CN(C)C)C2)c2cncn2c1 [Example 18] | B (a value of 2.3 to 3)
14 | CN(C)C/C=C/C(=O)N1CC(COc2cc(-c3ccc(O)cc3)cn3cncc23)C1 [Example 19] | A (a value of 3 or above)
15 | C=CC(=O)N1CC(COc2cc(-c3ccc(O)cc3CC)cn3cncc23)C1 [Example 21] | A (a value of 3 or above)
16 | CN(C)C/C=C/C(=O)N1CC(COc2cc(-c3ccc(O)c(F)c3)cn3cncc23)C1 [Example 22] | A (a value of 3 or above)
17 | CN(C)C/C=C/C(=O)N1CC(COc2cc(-c3ccc(O)c(Cl)c3)cn3cncc23)C1 [Example 23] | A (a value of 3 or above)
18 | CCc1cc(O)ccc1-c1cc(OCC2CN(C(=O)/C=C/CN(C)C)C2)c2cncn2c1 [Example 25] | A (a value of 3 or above)
19 | C=CC(=O)N1CC[C@H](COc2cc(-c3ccc(O)cc3)cn3cncc23)C1 [Example 26] | A (a value of 3 or above)
20 | C=CC(=O)N1CCC[C@H](Oc2cc(-c3ccc(O)cc3)cn3cncc23)C1 [Example 27] | A (a value of 3 or above)
21 | C=CC(=O)N1CC(CSc2cc(-c3ccc(O)cc3)cn3cncc23)C1 [Example 29] | A (a value of 3 or above)
22 | C=CC(=O)N1CCC(Oc2cc(-c3ccc(O)cc3)cn3cncc23)CC1 [Example 30] | A (a value of 3 or above)

Row | Structure (SMILES) | JAK3 (pKi)-JAK1 (pKi)
23 | C=CC(=O)N1CC(COc2cc(-c3cc(F)c(O)c(F)c3)cn3cncc23)C1 [Example 32] | A (a value of 3 or above)
24 | C=CC(=O)N1CC(COc2cc(-c3cc(Cl)c(O)c(Cl)c3)cn3cncc23)C1 [Example 33] | A (a value of 3 or above)
25 | C=CC(=O)N1CC(COc2cc(-c3cc(C)c(O)c(C)c3)cn3cncc23)C1 [Example 35] | A (a value of 3 or above)
26 | C=CC(=O)N1[C@@H]2CC[C@H]1C[C@@H](Oc1cc(-c3ccc(O)cc3)cn3cncc13)C2 [Example 36] | A (a value of 3 or above)
27 | C=CC(=O)N1CC2(CC(Oc3cc(-c4ccc(O)cc4)cn4cncc34)C2)C1 [Example 37] | A (a value of 3 or above)
28 | C=CC(=O)N1CC[C@H](Oc2cc(-c3ccc(O)cc3)cn3cncc23)C[C@@H]1C [Example 38] | A (a value of 3 or above)
29 | C=CC(=O)N1CC[C@@H](Oc2cc(-c3ccc(O)cc3)cn3cncc23)C[C@@H]1C [Example 39] | A (a value of 3 or above)
30 | C=CC(=O)N1[C@H](C)C[C@H](Oc2cc(-c3ccc(O)cc3)cn3cncc23)C[C@@H]1C [Example 40] | B (a value of 2.3 to 3)
31 | C=CC(=O)N1CC[C@@H](Oc2cc(-c3ccc(O)cc3)cn3cncc23)[C@@H](C)C1 [Example 41] | A (a value of 3 or above)
32 | C=CC(=O)N1CC(COc2cc(-c3ccc(O)cc3C(F)(F)F)cn3cncc23)C1 [Example 42] | A (a value of 3 or above)
33 | C=CC(=O)N1CC(COc2cc(-c3cc(C)c(O)cc3C)cn3cncc23)C1 [Example 43] | A (a value of 3 or above)
34 | C=CC(=O)N1CC(COc2cc(-c3ccc(O)cc3C)cn3cncc23)C1 [Example 44] | A (a value of 3 or above)
35 | C=CC(=O)N1CC(COc2cc(-c3ccc(O)cc3OC)cn3cncc23)C1 [Example 45] | A (a value of 3 or above)
36 | C=CC(=O)N1CC2(CCC2Oc2cc(-c3cc(F)c(O)cc3CC)cn3cncc23)C1 (stereo not drawn) [Example 46] | B (a value of 2.3 to 3)
37 | C=CC(=O)N1CCC(Oc2cc(-c3cc(F)c(O)cc3CC)cn3cncc23)CC1 [Example 47] | B (a value of 2.3 to 3)
38 | C=CC(=O)N1[C@@H]2CC[C@H]1C[C@H](Oc1cc(-c3cc(F)c(O)cc3CC)cn3cncc13)C2 [Example 48] | A (a value of 3 or above)
39 | C=CC(=O)N1CCC(Oc2cc(-c3cc(F)c(O)cc3CC)cn3cncc23)C(F)(F)C1 (stereo not drawn) [Example 49] | C (a value of 1.8 to 2.3)
40 | C=CC(=O)N1[C@@H]2CC[C@H]1C[C@H](Nc1cc(-c3ccc(O)cc3)cn3cncc13)C2 [Example 50] | B (a value of 2.3 to 3)
41 | C=CC(=O)N1CCC[C@H](Nc2cc(-c3ccc(O)cc3)cn3cncc23)C1 [Example 51] | B (a value of 2.3 to 3)
42 | C=CC(=O)N1CC(CNc2cc(-c3ccc(O)cc3)cn3cncc23)C1 [Example 52] | B (a value of 2.3 to 3)
